Measured values as given in US12295396B2, “Antagonists of T2R54 and compositions and uses thereof” (Firmenich Incorporated, priority 2018, dated 2025).
pIC50: −log10 of the molar value.

Each molecule was assayed against T1, hT2R54 (Homo sapiens, UniProt P59534) (assay: Cell-based assay for measuring hT2R54 inhibition (FLIPR calcium, Fluo4AM, acetaminophen as bitter agonist)). Conditions: Table 2; cells stably expressing hT2R54 and a promiscuous G protein; read-out: hT2R54 IC50.
T1 construct: expressed in transfected cells; it overexpresses a promiscuous G protein
T1 sequence (P59534 1-338): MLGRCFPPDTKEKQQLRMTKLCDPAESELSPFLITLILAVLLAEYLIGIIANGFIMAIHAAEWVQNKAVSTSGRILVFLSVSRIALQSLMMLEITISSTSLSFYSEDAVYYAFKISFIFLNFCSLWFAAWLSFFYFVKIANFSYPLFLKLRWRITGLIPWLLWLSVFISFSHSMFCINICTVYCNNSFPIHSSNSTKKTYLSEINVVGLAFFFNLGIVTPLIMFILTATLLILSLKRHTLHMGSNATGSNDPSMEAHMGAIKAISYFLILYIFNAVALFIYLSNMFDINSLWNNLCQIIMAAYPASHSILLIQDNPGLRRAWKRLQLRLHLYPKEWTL
How it was run: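 The readout was FLIPR calcium (Fluo4AM, 10 s baseline, 3 min post-addition) in cells stably carrying hT2R54 plus a promiscuous G protein, with host cells lacking hT2R54 as counter-control. Acetaminophen concentration series were tested with and without set test-compound levels. Half-maximal block of the agonist response gave the EC50/IC50.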
For `CC(=O)c1cc2c(cc1NC(=O)CN1CCN(C(=O)CC3CCOC3)CC1)OCO2` (centres unmarked) [compound 323], the pIC50 was 6.70.
For `CC(=O)c1cc2c(cc1NC(=O)CN1CCN(C(=O)Cc3ccoc3)CC1)OCO2` [compound 324], the pIC50 was 7.10.
`COCc1ccc(C(=O)N2CCN(CC(=O)Nc3cc4c(cc3C(C)=O)OCCO4)CC2)cc1` [compound 325] was tested, and the pIC50 was 7.35.
In the case of `CC(=O)c1cc2c(cc1NC(=O)CN1CCN(C(=O)c3cccnc3)CC1)OCCO2` [compound 326], the pIC50 was 7.40.
`CC(=O)c1cc2c(cc1NC(=O)CN1CCN(C(=O)c3ccncc3)CC1)OCCO2` [compound 327] gave a pIC50 of 7.15.
Molecule `CC(=O)c1cc2c(cc1NC(=O)CN1CCN(C(=O)c3ncn[nH]3)CC1)OCCO2` [compound 328] has a pIC50 of 7.22.
`CC(=O)c1cc2c(cc1NC(=O)CN1CCN(C(=O)c3cnn[nH]3)CC1)OCCO2` [compound 329] showed a pIC50 of 7.30.
In the case of `CC(=O)c1cc2c(cc1NC(=O)CN1CCN(C(=O)c3ccn[nH]3)CC1)OCCO2` [compound 330], the pIC50 was 7.05.
`CC(=O)c1cc2c(cc1NC(=O)CN1CCN(C(=O)c3c[nH]c(C)n3)CC1)OCCO2` [compound 331] showed a pIC50 of 6.70.
In the case of `CC(=O)c1cc2c(cc1NC(=O)CN1CCN(C(=O)c3nc(C)c[nH]3)CC1)OCCO2` [compound 332], the pIC50 was 6.70.
Molecule `CC(=O)c1cc2c(cc1NC(=O)CN1CCN(C(=O)c3ccc(C)o3)CC1)OCCO2` [compound 333] has a pIC50 of 7.10.
`CC(=O)c1cc2c(cc1NC(=O)CN1CCN(C(=O)Cc3ccco3)CC1)OCCO2` [compound 334] showed a pIC50 of 7.30.
Work on `CC(=O)c1cc2c(cc1NC(=O)CN1CCN(C(=O)[C@H]3CCC(=O)O3)CC1)OCCO2` [compound 335] yielded a pIC50 of 7.30.
`CC(=O)c1cc2c(cc1NC(=O)CN1CCN(C(C)=O)CC1)OCCO2` [compound 336] showed a pIC50 of 7.30.
`CC(=O)c1cc2c(cc1NC(=O)C(C)N1CCN(C(C)=O)CC1)OCCO2` (centres unmarked) [compound 337] was tested, and the pIC50 was 7.22.
`COCC(=O)N1CCN(CC(=O)Nc2cc3c(cc2C(C)=O)OCCO3)CC1` [compound 338] was tested, and the pIC50 was 7.22.
`COCCOCC(=O)N1CCN(CC(=O)Nc2cc3c(cc2C(C)=O)OCCO3)CC1` [compound 339] was tested, and the pIC50 was 7.10.
In the case of `CC(=O)c1cc2c(cc1NC(=O)CN1CCN(C(=O)C3CCCO3)CC1)OCCO2` (centres unmarked) [compound 340], the pIC50 was 7.05.
With `CC(=O)c1cc2c(cc1NC(=O)CN1CCN(C(=O)[C@@H]3CCCO3)CC1)OCCO2` [compound 341] the pIC50 was 5.74.
In the case of `CC(=O)c1cc2c(cc1NC(=O)CN1CCN(C(=O)[C@H]3CCCO3)CC1)OCCO2` [compound 342], the pIC50 was 7.15.
`CC(=O)c1cc2c(cc1NC(=O)CN1CCN(C(=O)C3CCCCO3)CC1)OCCO2` (centres unmarked) [compound 343] was tested, and the pIC50 was 7.52.
Work on `CC(=O)c1cc2c(cc1NC(=O)CN1CCN(C(=O)CC3CCOC3)CC1)OCCO2` (centres unmarked) [compound 344] yielded a pIC50 of 7.30.
`CC(=O)c1cc2c(cc1NC(=O)CN1CCN(C(=O)CN3CCCC3)CC1)OCCO2` [compound 345] was tested, and the pIC50 was under 5.00.
For `COC(=O)c1cc2c(cc1NC(=O)CN1CCN(C(=O)c3cn(C)nn3)CC1)OCO2` [compound 346], the pIC50 was 7.64.
For `COCc1ccc(C(=O)N2CCN(CC(=O)Nc3cc4c(cc3C(=O)OC)OCO4)CC2)o1` [compound 347], the pIC50 was 7.08.
For `COC(=O)c1cc2c(cc1NC(=O)CN1CCN(C(C)=O)CC1)OCO2` [compound 348], the pIC50 was 6.78.
In the case of `CCCC(=O)N1CCN(CC(=O)Nc2cc3c(cc2C(=O)OC)OCO3)CC1` [compound 349], the pIC50 was 6.61.
`COC(=O)c1cc2c(cc1NC(=O)CN1CCN(C(=O)C3CCCO3)CC1)OCO2` (centres unmarked) [compound 350] gave a pIC50 of 6.52.
Molecule `COC(=O)c1cc2c(cc1NC(=O)CN1CCN(C(=O)CC3CCCO3)CC1)OCO2` (centres unmarked) [compound 351] has a pIC50 of 6.36.
`COC(=O)c1cc2c(cc1NC(=O)CN1CCN(C(=O)CN3CCOCC3)CC1)OCO2` [compound 352] gave a pIC50 of 6.13.
`COC(=O)c1cc2c(cc1NC(=O)CN1CCN(C(C)=O)CC1)CCCC2` [compound 353] gave a pIC50 of 5.68.
In the case of `COc1cc2c(cc1NC(=O)CN1CCN(C(=O)C3CCCO3)CC1)CCC2` (centres unmarked) [compound 354], the pIC50 was 5.72.
With `COc1cc2c(cc1NC(=O)CN1CCN(C(C)=O)CC1)CCC2` [compound 355] the pIC50 was 5.60.
`COCc1cccc(C(=O)N2CCN(CC(=O)Nc3cc4c(cc3OC)OCO4)CC2)c1` [compound 356] was tested, and the pIC50 was 6.81.
`COCc1ccc(C(=O)N2CCN(CC(=O)Nc3cc4c(cc3OC)OCO4)CC2)s1` [compound 357] gave a pIC50 of 6.68.
In the case of `COCc1ccc(C(=O)N2CCN(CC(=O)Nc3cc4c(cc3OC)OCO4)CC2)cc1` [compound 358], the pIC50 was 6.83.
In the case of `COCc1nc(C(=O)N2CCN(CC(=O)Nc3cc4c(cc3OC)OCO4)CC2)cs1` [compound 359], the pIC50 was 6.58.
Molecule `COc1cc2c(cc1NC(=O)CN1CCN(C(=O)c3cn(C)nn3)CC1)OCO2` [compound 360] has a pIC50 of 6.13.
With `COCc1nc(C(=O)N2CCN(CC(=O)Nc3cc4c(cc3OC)OCO4)CC2)co1` [compound 361] the pIC50 was 6.26.
Molecule `COc1cc2c(cc1NC(=O)CN1CCN(C(=O)c3ncoc3C)CC1)OCO2` [compound 362] has a pIC50 of 6.25.
In the case of `COc1cc2c(cc1NC(=O)CN1CCN(C(=O)c3cn(C)nc3C)CC1)OCO2` [compound 363], the pIC50 was 6.22.
Work on `COc1cc2c(cc1NC(=O)CN1CCN(C(C)=O)CC1)OCO2` [compound 364] yielded a pIC50 of 5.81.
`COc1cc2c(cc1NC(=O)CN1CCN(C(=O)CN3CCOCC3)CC1)OCO2` [compound 365] was tested, and the pIC50 was 5.58.
For `COc1cc2c(cc1NC(=O)CN1CCN(C(=O)c3cccc(F)c3)CC1)OCO2` [compound 367], the pIC50 was 6.22.
In the case of `COc1ccc(C(=O)N2CCN(CC(=O)Nc3cc4c(cc3OC)OCO4)CC2)cc1` [compound 368], the pIC50 was 6.22.
`COc1cccc(C(=O)N2CCN(CC(=O)Nc3cc4c(cc3OC)OCO4)CC2)c1` [compound 369] showed a pIC50 of 6.52.
For `COc1cc2c(cc1NC(=O)CN1CCN(C(=O)Cc3ccccc3)CC1)OCO2` [compound 370], the pIC50 was 6.40.
`COc1cc2c(cc1NC(=O)CN1CCN(C(=O)Cc3ccc(F)cc3)CC1)OCO2` [compound 371] showed a pIC50 of 6.05.
In the case of `COc1cc2c(cc1NC(=O)CN1CCN(C(=O)Cc3cccc(O)c3)CC1)OCO2` [compound 372], the pIC50 was 6.40.
Molecule `COc1cc2c(cc1NC(=O)CN1CCN(C(=O)Cc3ccc(O)cc3)CC1)OCO2` [compound 373] has a pIC50 of 6.15.
With `COc1cccc(CC(=O)N2CCN(CC(=O)Nc3cc4c(cc3OC)OCO4)CC2)c1` [compound 374] the pIC50 was 6.52.
Work on `COc1ccc(CC(=O)N2CCN(CC(=O)Nc3cc4c(cc3OC)OCO4)CC2)cc1` [compound 375] yielded a pIC50 of 6.00.
With `COc1cc2c(cc1NC(=O)CN1CCN(C(=O)Cc3ccccc3F)CC1)OCO2` [compound 376] the pIC50 was 6.70.
For `COc1cc2c(cc1NC(=O)CN1CCN(C(=O)Cc3cccc(F)c3)CC1)OCO2` [compound 377], the pIC50 was 6.70.
Work on `COc1cc2c(cc1NC(=O)CN1CCN(C(=O)Cc3ccncc3)CC1)OCO2` [compound 378] yielded a pIC50 of 5.96.
Molecule `COc1cc2c(cc1NC(=O)CN1CCN(C(=O)c3ccccc3)CC1)OCO2` [compound 379] has a pIC50 of 6.40.
`COc1cc2c(cc1NC(=O)CN1CCN(C(=O)c3ccc(O)cc3)CC1)OCO2` [compound 380] showed a pIC50 of 6.10.
Molecule `COc1cc2c(cc1NC(=O)CN1CCN(C(=O)c3ccc(O)c(O)c3)CC1)OCO2` [compound 381] has a pIC50 of 5.30.
`COc1cc2c(cc1NC(=O)CN1CCN(C(=O)c3cccc(C#N)c3)CC1)OCO2` [compound 382] gave a pIC50 of 6.40.
`COc1cc2c(cc1NC(=O)CN1CCN(C(=O)c3cccc(CO)c3)CC1)OCO2` [compound 383] showed a pIC50 of 6.22.
With `COc1cc2c(cc1NC(=O)CN1CCN(C(=O)c3cc(C)oc3C)CC1)OCO2` [compound 384] the pIC50 was 6.70.
`COc1cc2c(cc1NC(=O)CN1CCN(C(=O)c3cc[nH]n3)CC1)OCO2` [compound 385] was tested, and the pIC50 was 6.15.
`COc1cc2c(cc1NC(=O)CN1CCN(C(=O)c3ccoc3)CC1)OCO2` [compound 386] was tested, and the pIC50 was 6.70.
`COc1cc2c(cc1NC(=O)CN1CCN(C(=O)c3cnon3)CC1)OCO2` [compound 387] was tested, and the pIC50 was under 5.00.
Molecule `COc1cc2c(cc1NC(=O)CN1CCN(C(=O)c3ncn[nH]3)CC1)OCO2` [compound 388] has a pIC50 of 5.59.
`COc1cc2c(cc1NC(=O)CN1CCN(C(=O)c3cc(C)on3)CC1)OCO2` [compound 389] showed a pIC50 of 6.40.
For `COc1cc2c(cc1NC(=O)CN1CCN(C(=O)c3n[nH]cc3C)CC1)OCO2` [compound 390], the pIC50 was 5.57.
For `COc1cc2c(cc1NC(=O)CN1CCN(C(=O)c3nc(C)c[nH]3)CC1)OCO2` [compound 391], the pIC50 was 6.70.
`COc1cc2c(cc1NC(=O)CN1CCN(C(=O)c3c[nH]c(C)n3)CC1)OCO2` [compound 392] gave a pIC50 of 5.89.
Molecule `COc1cc2c(cc1NC(=O)CN1CCN(C(=O)c3ncc[nH]3)CC1)OCO2` [compound 393] has a pIC50 of 6.70.
In the case of `COc1cc2c(cc1NC(=O)CN1CCN(C(=O)c3cc(C)c(C)o3)CC1)OCO2` [compound 395], the pIC50 was 7.00.
With `COCc1ccc(C(=O)N2CCN(CC(=O)Nc3cc4c(cc3OC)OCO4)CC2)o1` [compound 396] the pIC50 was 7.00.
`COCc1cc(C(=O)N2CCN(CC(=O)Nc3cc4c(cc3OC)OCO4)CC2)no1` [compound 397] was tested, and the pIC50 was 6.11.
`COc1cc2c(cc1NC(=O)CN1CCN(C(=O)c3ccc(CO)o3)CC1)OCO2` [compound 398] was tested, and the pIC50 was 6.20.
With `COc1cc2c(cc1NC(=O)CN1CCN(C(=O)c3ncn[nH]3)CC1)OCO2` [compound 399] the pIC50 was 5.85.
Molecule `COCc1cc(C(=O)N2CCN(CC(=O)Nc3cc4c(cc3OC)OCO4)CC2)no1` [compound 400] has a pIC50 of 6.52.
With `COc1cc2c(cc1NC(=O)CN1CCN(C(=O)Cc3ccoc3)CC1)OCO2` [compound 401] the pIC50 was 6.89.
